Laboratory results as given in ChEMBL document CHEMBL1136094, “Novel, potent and selective cyclin D1/CDK4 inhibitors: indolo[6,7-a]pyrrolo[3,4-c]carbazoles” (Bioorg Med Chem Lett, 2003).
≈ marks a conversion by molar mass, not a printed value.

Assays:
[1] = Aqueous solubility (in situ) in D5W after 1 week was determined; type: physicochemical; settings: for solubility at 168 h: D5W
[2] = test system: NCI-H460; test: In vitro antiproliferative activity against human carcinoma cell line H460 (lung); type: functional, cell-based
[3] = biological target: Cyclin-dependent kinase 4 (Homo sapiens) (UniProt P11802); test: Inhibition of Rb phosphorylation at the CDK4 specific Ser780 residue (1 fold increase over control) after 24 hr incubation in HCT116 cells; type: functional, cell-based; settings: HCT-116, concentration not given here
Cyclin-dependent kinase 4 (Homo sapiens), sequence (P11802 whole entry): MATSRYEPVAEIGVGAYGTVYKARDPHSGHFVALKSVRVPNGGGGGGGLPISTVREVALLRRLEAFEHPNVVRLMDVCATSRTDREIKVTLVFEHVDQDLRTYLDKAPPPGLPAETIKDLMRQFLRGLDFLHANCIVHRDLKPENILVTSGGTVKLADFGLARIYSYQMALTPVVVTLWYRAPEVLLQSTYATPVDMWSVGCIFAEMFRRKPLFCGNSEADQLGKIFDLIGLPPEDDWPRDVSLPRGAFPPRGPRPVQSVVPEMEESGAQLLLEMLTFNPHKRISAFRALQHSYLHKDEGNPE

[4] = biological target: CaM kinase II (Homo sapiens, UniProt Q13557+Q13555+Q13554+Q9UQM7); test: Inhibitory activity against Calcium/calmodulin-dependent protein kinase type II; type: protein assay
[5] = biological target: T1, Cyclin-dependent kinase 4/cyclin D1 (Homo sapiens, UniProt P11802); test: Inhibitory activity against Cyclin D1-cyclin-dependent kinase 4 in enzymatic assay by measuring phosphorylation of RbING; type: protein-complex assay
T1 sequence (P11802 whole entry): as above
T1 sequence (P24385 whole entry, further chain): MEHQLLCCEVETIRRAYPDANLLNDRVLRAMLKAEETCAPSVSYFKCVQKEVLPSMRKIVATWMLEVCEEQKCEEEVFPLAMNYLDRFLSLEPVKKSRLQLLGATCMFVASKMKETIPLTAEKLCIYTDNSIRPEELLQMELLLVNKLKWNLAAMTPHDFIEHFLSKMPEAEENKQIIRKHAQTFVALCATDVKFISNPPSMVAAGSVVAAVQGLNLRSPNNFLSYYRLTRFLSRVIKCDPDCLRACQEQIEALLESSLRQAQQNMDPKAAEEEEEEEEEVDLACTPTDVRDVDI

[6] = biological target: T1, Cyclin-dependent kinase 4/cyclin D1; test: Inhibitory activity against Cyclin D1-cyclin-dependent kinase 4 in enzymatic assay by measuring phosphorylation of Rb21; type: protein-complex assay
[7] = biological target: cAMP-dependent protein kinase (PKA) (Homo sapiens, UniProt P22694+P17612+P22612); test: Inhibitory activity against Protein kinase A (Histone); type: protein assay
[8] = biological target: Cyclin-dependent kinase 2/cyclin E (Homo sapiens, UniProt P24941); test: Inhibitory activity against Cyclin E-cyclin-dependent kinase 2 in enzymatic assay by measuring phosphorylation of RbING; type: protein-complex assay
[9] = test system: HCT-116; test: (§1) Flow cytometry of HCT116 cells, G1 arrest (3 fold increase over control) after 24 hr r; type: functional
[10] = test system: HCT-116; test: GI arrest (3 fold increase over control) in HCT116 cells was determined by flow cytometry after 24 hr incubation; type: functional, Homo sapiens
[11] = test system: HCT-116; test: In vitro antiproliferative activity against human carcinoma cell line HCT116 (colon); type: functional, cell-based
[12] = biological target: Cyclin-dependent kinase 4 (Homo sapiens) (UniProt P11802); test: Inhibition of Cyclin-dependent kinase 4 specific Ser780 Rb phosphorylation, 3 fold increase over 24 hr incubation in HCT116 cells; type: functional, cell-based; settings: HCT-116; concentration not given here
[13] = test system: HCT-116; test: Flow cytometry of HCT116 cells, G1 arrest (fold increase over control) after 24 hr r incubation; type: functional, Homo sapiens
[14] = test system: HCT-116; test: Flow cytometry of HCT116 cells, G1 arrest ( fold increase over control) after 24 hr r; type: functional, Homo sapiens
[15] = biological target: Cyclin-dependent kinase 4 (Homo sapiens) (UniProt P11802); test: Inhibition of Rb phosphorylation at the CDK4 specific Ser780 residue (3 fold increase over control) after 24 hr incubation in HCT116 cells; type: functional, cell-based; settings: HCT-116, concentration not given here
[16] = test system: HCT-116; test: GI arrest (1 fold increase over control) in HCT116 cells was determined by flow cytometry after 24 hr incubation; type: functional, Homo sapiens
[17] = test system: HCT-116; test: Flow cytometry of HCT116 cells, G1 arrest (2.6 fold increase over control) after 24 hr r; type: functional, Homo sapiens
[18] = test system: HCT-116; test: Flow cytometry of HCT116 cells, G1 arrest (1 fold increase over control) after 24 hr r; type: functional, Homo sapiens
[19] = test system: HCT-116; test: as §1; type: functional, Homo sapiens
[20] = biological target: Cyclin-dependent kinase 2/cyclin E1 (Homo sapiens, UniProt P24941); test: Inhibition of RbING phosphorylation by Cyclin E1-cyclin-dependent kinase 2; type: protein-complex assay

Compound	solubility at 168 h [1] [µg/mL]	IC50 [2] [µM]	inhibition [3] [%]	IC50 [4] [µM]	IC50 [5] [µM]	IC50 [6] [µM]	IC50 [7] [µM]	IC50 [8] [µM]	IC50 [11] [µM]	inhibition [15] [%]	Fold increase [10]	Fold increase [16]	also measured
COc1ccc2c3c4c(c5c(ccc6ccn(C)c65)c3n(CCN[C@H]3CC[C@H](O)CC3)c2c1)C(=O)NC4=O	7800 (≈ 15.3 mM)	1.05	67	1.17	0.063	0.023	18	0.902	0.89	–	2	–	Solubility ([1]; buffer, 168 h): 7800 µg/mL (≈ 15.3 mM); Fold increase [9]: 2; inhibition [12]: 95%
COc1ccc2c3c4c(c5c(ccc6ccn(C)c65)c3n(CCCN3CCC(C(N)=O)CC3)c2c1)C(=O)NC4=O	–	2.44	58	3.05	0.077	0.013	3.38	1	1.96	67	–	1.9	Fold increase [17]: 2.5
COc1ccc2c3c4c(c5c(ccc6ccn(C)c65)c3n(CCCNCCO)c2c1)C(=O)NC4=O	8600 (≈ 18.3 mM)	1.28	57	0.732	0.072	0.028	3.15	0.432	1.55	78	2.7	1.8	–

Second part, led by results:

solubility at 168 h [1] [µg/mL]	IC50 [2] [µM]	inhibition [3] [%]	IC50 [4] [µM]	IC50 [5] [µM]	IC50 [6] [µM]	IC50 [7] [µM]	IC50 [8] [µM]	IC50 [11] [µM]	inhibition [15] [%]	Compound	Fold increase [10]	Fold increase [16]	also measured
–	1.17	63	–	0.047	0.022	> 2	0.075	2.11	97	Cn1ccc2ccc3c4[nH]c5ccccc5c4c4c(c3c21)C(=O)NC4=O	–	–	Fold increase [13]: 1.4; Fold increase [14]: 2.5
–	–	60	–	0.082	0.075	> 2	0.21	1.13	92	Cn1ccc2ccc3c4[nH]c5c(CCO)cccc5c4c4c(c3c21)C(=O)NC4=O	–	–	Fold increase [18]: 1.4; Fold increase [19]: 2.7
–	0.71	71	–	0.054	–	13.2	–	1.13	86	COc1cc2c3[nH]c4ccccc4c3c3c(c2c2c1ccn2C)C(=O)NC3=O	2.2	1.2	IC50 [20]: 0.035 µM
